{
  "source": "paper PMC3976407",
  "about": "“Inhibition of Fatty Acid Binding Proteins Elevates Brain Anandamide Levels and Produces Analgesia” (PLoS ONE, 2014)",
  "key": {"FAAH": {"biological_target": "T1, FAAH (Mus musculus, UniProt O08914)", "T1 construct": "from tissue; host or cells: mouse brain and liver homogenates", "T1 sequence (O08914 1-579)": "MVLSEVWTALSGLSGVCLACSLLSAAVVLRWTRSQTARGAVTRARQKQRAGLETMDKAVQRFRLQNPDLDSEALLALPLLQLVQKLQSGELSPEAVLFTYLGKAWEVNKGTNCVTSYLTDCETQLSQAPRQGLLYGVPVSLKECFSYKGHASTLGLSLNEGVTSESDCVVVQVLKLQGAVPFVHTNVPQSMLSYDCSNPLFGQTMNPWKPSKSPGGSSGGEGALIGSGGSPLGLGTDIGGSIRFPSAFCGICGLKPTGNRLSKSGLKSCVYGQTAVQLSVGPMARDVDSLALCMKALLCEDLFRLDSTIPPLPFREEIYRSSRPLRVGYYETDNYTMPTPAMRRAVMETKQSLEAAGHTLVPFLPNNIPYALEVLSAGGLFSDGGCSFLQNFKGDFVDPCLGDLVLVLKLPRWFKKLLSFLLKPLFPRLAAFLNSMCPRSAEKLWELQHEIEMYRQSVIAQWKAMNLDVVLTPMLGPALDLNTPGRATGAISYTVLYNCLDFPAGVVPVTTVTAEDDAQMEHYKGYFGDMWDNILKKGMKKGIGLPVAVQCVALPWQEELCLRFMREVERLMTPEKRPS", "experiment": "AEA hydrolysis by brain and liver homogenates after injection of inhibitor", "type": "biochemical", "conditions": "mouse brain and liver homogenates harvested 60 min after 20 mg/kg, i.p.; 30 μM [14C]AEA", "experimental": "AEA and 2-OG hydrolysis was determined using modified protocols to those described previously, [35]. Mice were injected with inhibitors (20 mg/kg, i.p.) and the brains and livers were harvested 60 min later. The tissue homogenates were subsequently incubated with 30 μM [^14C]AEA or 10 μM [^3H]2-OG for 30 min. Reactions were stopped with two volumes of chloroform:methanol (1∶1) and the methanol phase was counted using a Beckman LS6500 scintillation counter."}, "[1]": {"tested_on": "rectal temperature in mice", "experiment": "Rectal temperature", "type": "in vivo, mouse", "conditions": "20 mg/kg, i.p., baseline vs 90 min", "experimental": "Rectal temperature was measured at baseline and 90 min following vehicle or drug administration, by inserting a thermocouple probe 1.5 cm into the rectum and the temperature was read using a thermocouple meter (Kent Scientific)."}, "[2]": {"tested_on": "formalin-induced nociception in mice", "experiment": "Formalin test", "type": "in vivo, mouse", "conditions": "20 mg/kg, i.p.", "experimental": "Mice were habituated to the observation chamber (Plexiglas box, 25 cm×25 cm×25 cm) for 30 min prior to formalin injection. Mice were administered FABP inhibitors 60 min prior to formalin. The animals subsequently received an injection of formalin (2.5% in saline, 20 μl) into the plantar surface of the right hind paw using a 30 gauge needle and were immediately placed back into the observation chamber and nocifensive behavior (time spent licking or biting the paw) was recorded for 60 min. Nocifensive behavior was scored during the first phase (0–5 min) and the second phase (∼15–45 min) of the formalin test."}, "[3]": {"tested_on": "acetic acid-induced writhing in mice", "experiment": "Acetic acid-induced writhing", "type": "in vivo, mouse", "experimental": "Mice were acclimated to the laboratory environment for at least two hours and were habituated to the testing chamber for 30 min prior to acetic acid challenge. SBFI26, SBFI50, SBFI60, and SBFI62 (20 mg/kg) were administered via the subcutaneous route 60 min before acetic acid. Rimonabant, SR144528, GW6471, and naloxone were given 10 min before the inhibitors via the subcutaneous route. The mice subsequently received an i.p. injection of acetic acid (0.6% in sterile saline, 10 μl/g) and were placed in observation chambers. Abdominal stretches (marked by extension of the body and hind limbs) were counted for 20 min starting at 5 min post-injection."}, "rats subjected to CCI": {"tested_on": "rats subjected to CCI", "experiment": "Rat neuropathic pain model (chronic constriction injury of the sciatic nerve)", "type": "in vivo", "conditions": "20 mg/kg i.p.", "description": "Male Fisher 344 rats were habituated and pre-injury evoked responses were obtained. The Hargreaves test was used to assess thermal hyperalgesia. Briefly, plexiglass enclosures were set atop a plexiglass platform and infrared source set at 50% power located under the platform was used as the heat stimulus (Ugo Basile). A 200 mW, 535 nm diode laser was mounted in an adjustable stand placed beneath the plexiglass platform, and was used as an alternative heat stimulus for some of the animals in this study. The latency time to hind paw lift during heating of the plantar surface was recorded. Five recordings were obtained on each hind paw with at least 2 min rest between measurements. The maximum time for exposure to the infrared or diode laser source was 30.5 s to avoid any possible tissue injury. For mechanical threshold measurements, the animal enclosures rested on a screen with mesh of 0.5 cm spacing. Following acclimation, an electronic von Frey Anesthesiometer (IITC Life Sciences) was applied with increasing pressure to the plantar surface of the hind paw until the animals lifted the hind paw. The number of grams of force applied by the probe to induce withdrawal was recorded. Five recordings were obtained on each hind paw with at least 3 min between measurements. For CCI surgeries, our procedure closely followed that reported previously. Briefly, each animal received an i.p. injection of ketamine/xylazine (75 mg/kg and 10 mg/kg, respectively). The hind leg was surgically prepped and the anesthetized animal placed prone on an sterile towel over a heating pad. The temperature was monitored rectally. A skin incision was made mid-thigh with a medium curved scalpel and then scissors were used to expose the sciatic nerve. Approximately 1 cm of the main trunk proximal to the trifuraction was isolated and 4 strands of 4-0 chromic gut were tied around the nerve ∼ 1 mm apart under magnification. In a modification of the original method, a 2-0 prolene strand was placed between the nerve and the gut to which the suture was tightened. The prolene strand was then removed. This prevented over tightening and reduced subsequent motor paralysis. The muscle layers were then reopposed and sutured, and surgical staples were used to close the skin. On post-injury days 7 through 10, heat and mechanical measurements were obained for the ipsilateral hindpaw of each CCI animal. Immediately following the post-injury measurements, animals were randomized and received i.p. injections of vehicle or 20 mg/kg SBI26 (DMSO:cremophor:sterile saline 1∶1∶2 by volume). Up to 0.8 ml of drug or vehicle was injected. The observer was blinded as to administration of drug or vehicle. Thermal and mechanical measurements were performed at 1 and 4 h post-injection. Data were normalized to pre-injury baseline measurements for each animal."}, "FABP3": {"biological_target": "FABP3 (Homo sapiens, UniProt P05413)", "sequence (P05413 whole entry, species assumed)": "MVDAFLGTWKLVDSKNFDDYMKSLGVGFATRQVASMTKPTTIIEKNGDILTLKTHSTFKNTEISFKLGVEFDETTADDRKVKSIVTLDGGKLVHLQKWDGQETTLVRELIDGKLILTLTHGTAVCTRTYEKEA", "experiment": "NBD-stearate fluorescence displacement binding", "method": "Inhibitory constant (Ki) values were elucidated utilizing NBD-stearate fluorescence displacement as described previously [9], [31]. The tests were performed in 96-well plates containing inhibitors (0.1 – 50.0 μM), FABP, and NBD-stearate. Fluorescence intensity was measured with a FLUOstar OPTIMA spectrofluorometer with excitation and emission wavelengths of 460 and 544 nm, respectively."}},
  "data": [
    {"smiles": "O=C(O)C1C(c2ccccc2)C(C(=O)Oc2cccc3ccccc23)C1c1ccccc1", "note": "(stereo not drawn) [SBFI26, alpha-2,4-diphenylcyclobutane-1,3-dicarboxylic acid mono-1-naphthyl ester]", "values": [
      {"measurement": "Inhibition of AEA hydrolysis", "setting": "FAAH", "value": "did not inhibit"},
      {"measurement": "Rectal temperature", "setting": "[1]", "value": "does not reduce"},
      {"measurement": "Effect upon first phase of formalin-induced nociception", "setting": "[2]; first phase 0–5 min", "value": "reduced"},
      {"measurement": "Effect upon second phase of formalin-induced nociception", "setting": "[2]; second phase ∼15–45 min", "value": "reduced"},
      {"measurement": "Effect upon acetic acid-induced writhing", "setting": "[3]; 20 mg/kg, subcutaneous, 60 min before acetic acid", "value": "significantly reduced"},
      {"measurement": "Antinociceptive effects in the acetic acid test after pretreatment with PPARα antagonist GW6471", "setting": "[3]; GW6471 4 mg/kg", "value": "blocked"},
      {"measurement": "Antinociceptive effects in the acetic acid test after pretreatment with CB2 antagonist SR144528", "setting": "[3]; SR144528 3 mg/kg", "value": "failed to reverse"},
      {"measurement": "Dose of near maximal efficacy in acetic acid writhing", "setting": "[3]; dose response analysis", "value": 20, "unit": "mg/kg"},
      {"measurement": "Antinociceptive effects in the acetic acid test after pretreatment with opioid antagonist naloxone", "setting": "[3]; naloxone 2 mg/kg", "value": "failed to reverse"},
      {"measurement": "Antinociceptive effects in the acetic acid test after pretreatment with CB1 antagonist rimonabant", "setting": "[3]; rimonabant 3 mg/kg 10 min before inhibitor", "value": "completely blocked"},
      {"measurement": "Persistence of the effect on thermal hyperalgesia in CCI rats", "setting": "rats subjected to CCI", "value": "up to 4 hrs"},
      {"measurement": "Effect on mechanical thresholds in CCI rats", "setting": "rats subjected to CCI; 1 and 4 h", "value": "Neither compound altered"},
      {"measurement": "Effect on thermal hyperalgesia in CCI rats", "setting": "rats subjected to CCI; measured 1 and 4 h post-injection", "value": "completely reversed"},
      {"measurement": "Ki", "setting": "FABP3", "value": "3.9 ± 0.7", "unit": "µM"}
    ]}
  ]
}
